Source: paper PMC6895180 (Nature Communications, 2019)
Several values for one entry are separate records, joined by “and”; a condition that tells them apart may be missing. Equal entries are not always repeated. Where two headings read alike, the source gives them in different places.

Assays:
T. b. brucei Squib 427 = experiment: Mouse model of acute HAT
Experimental: Drinking water and food were available ad libitum throughout the experiment. […] The reference drug suramin was formulated in phospahte-buffered saline (PBS) at 2.5 mg mL^−1 and administered s.i.d. i.p. for 5 days at 10 mg kg^−1 (n = 3). All treatments were initiated 30 min prior to the i.p. infection. […] Parasitaemia was determined by microscopic evaluation of tail vein blood samples at 4, 7, 10, 14 and 21 dpi (pre-set endpoint). As a test of cure, blood samples (250 µL) were collected from treated mice at 21 dpi and were sub-inoculated i.p. in naive Swiss mice (n = 3), followed by monitoring of parasitaemia as follow-up.

[1] = biological target: Lister 427WT T. b. brucei; experiment: Adenosine deaminase susceptibility (drug sensitivity with/without 2 µM deoxycoformycin); format: cell-based, Trypanosoma brucei brucei; details: for EC50: Trypanosoma brucei, Lister 427WT, mean ± SEM, n=3
T. b. brucei BS221 = experiment: Susceptibility assay, BS221 cells; format: cell-based, Trypanosoma brucei brucei; details: for IC50: single determinations
Experimental: Susceptibility assays with NY-SM[51], BS221[48] and TbAT1-KO[48] (derived from BS221) cells were performed using 10 concentrations of a 4-fold compound dilution series starting at 64 µM. Parasites were seeded at 4 × 10^3 parasites per well and exposed to drug compound for 72 h, after which resazurin (final concentration of 10 µg mL^−1) was added to the plates. Fluorescence intensities were determined after 6 h.

[2] = Metabolic stability, mouse liver microsomes (phase I and II)
Experimental: (§1) Mouse, rat, and pooled human liver microsomes were purchased from a commercial source (Corning) and stored at -80 °C. NADPH generating system solutions A and B and UGT reaction mix solutions A and B (Corning) were kept at -20°C. The test compound and the reference compounds diclofenac (MW […]
(§2) microsomal stability assay was carried out based on the BD Biosciences Guidelines for Use (TF000017 Rev1.0) with minor adaptations. Metabolic stability of the compounds was studied through the CYP450 superfamily (phase I metabolism) by fortification with reduced nicotinamide adenine dinucleotide phosphate (NADPH) and through uridine glucuronosyl-transferase (UGT) enzymes (phase II metabolism) by fortification with uridine diphosphate glucuronic acid (UDPGA). For the CYP450 and other NADPH dependent enzymes, both compounds were incubated at 5 µM together with 0.5 mg mL-1 liver microsomes in potassium phosphate buffer in a reaction started by the addition of 1 mM NADPH […]
(§3) At these time points, 20 µL was withdrawn from the reaction mixture and 80 µL cold acetonitrile (ACN) containing the internal standard tolbutamide, was added to inactivate the enzymes and precipitate the proteins. The mixture was vortexed for 30 s and centrifuged at 4 °C for 5 min at 15,000 rpm. The supernatant was stored at -80°C until analysis. For the UGT enzymes, both compounds were incubated at 5 µM together with 0.5 mg mL-1 liver microsomes in a reaction started by the addition of 2 mM UDPGA cofactor. The corresponding loss of parent compound was determined using liquid chromatography (UPLC) (Waters AquityTM) coupled with tandem quadrupole mass spectrometry (MS²) (Waters XevoTM), equipped with an electrospray ionization (ESI) interface and operated in multiple reaction monitoring (MRM) mode. […]

[3] = Metabolic stability, pooled human liver microsomes (phase I and II)
Experimental: as §1, §2, §3

T. brucei NY-SM cells = experiment: RNA quantification (total RNA, RT-qPCR of SL-RNA, 18S rRNA, TERT); format: cell-based, Trypanosoma brucei; details: for RNA Yield: RNA Content: Control 1.00; for RNA Yield: 18S rRNA / RNA Yield: SL-RNA / RNA Yield: TERT: Control about 1
Experimental: After 24 h, the cells were harvested and washed with PBS. […] RNA was extracted using the QIAamp RNA Blood Mini Kit (Qiagen). Total RNA yields were determined using both Nanodrop 2000 spectrometry and Qubit fluorimetric RNA content analysis. Additionally, specific transcripts in the RNA pool were quantified using RT-qPCR targeting the SL-RNA, 18S rRNA and transcripts encoding the telomerase reverse transcriptase (TERT)[28],[56]. A list of primers used is provided in the Supplementary Methods section of the Supplementary Information.

[4] = absence of deoxycoformycin, read-out: T. b. brucei EC50, -Dcf
[5] = presence of 2 µM deoxycoformycin, read-out: T. b. brucei EC50, +Dcf

## Nc1ncnc2c1c(Br)cn2[C@@H]1O[C@H](CO)C[C@H]1O [Compound 10, 3’-deoxy-7-Br-tubercidin]
T. b. brucei Squib 427; 6.25 mg kg^−1 orally
  tolerability in mice: not well tolerated
[1]
  effect of adenosine deaminase inhibition (2’-deoxycoformycin) on EC50: not significantly affected
[1]; [4]
  EC50: 2 ± 0.1 nM
[1]; [5]
  EC50: 1.9 ± 0.2 nM

## Nc1ncnc2c1ccn2[C@@H]1O[C@H](CO)C[C@H]1O [Compound 9, 3’-deoxytubercidin]
T. b. brucei BS221; BS221, 0.015625 µM
  Inhibition (%): 98% and 95%
T. b. brucei BS221; BS221, 0.25 µM
  Inhibition (%): 98%
T. b. brucei BS221; BS221, 1 µM
  Inhibition (%): 98%
T. b. brucei BS221; BS221, 4 µM
  Inhibition (%): 98%
T. b. brucei BS221; BS221, 16 µM
  Inhibition (%): 98%
T. b. brucei BS221; Trypanosoma brucei, BS221, 0.000244141 µM
  inhibition at 0.000244141 µM: 0%
T. b. brucei BS221; Trypanosoma brucei, BS221, 0.000976563 µM
  inhibition at 0.000976563 µM: 0%
T. b. brucei BS221; Trypanosoma brucei, BS221, 0.015625 µM
  inhibition at 0.015625 µM: 97%
T. b. brucei BS221; Trypanosoma brucei, BS221, 0.0625 µM
  inhibition at 0.0625 µM: 99%
T. b. brucei BS221; Trypanosoma brucei, BS221, 0.25 µM
  inhibition at 0.25 µM: 99%
T. b. brucei BS221; Trypanosoma brucei, BS221, 1 µM
  inhibition at 1 µM: 99%
T. b. brucei BS221; Trypanosoma brucei, BS221, 4 µM
  inhibition at 4 µM: 100%
T. b. brucei BS221; Trypanosoma brucei, BS221, 16 µM
  inhibition at 16 µM: 99%
T. b. brucei BS221; Trypanosoma brucei, BS221, 64 µM
  inhibition at 64 µM: 99%
T. b. brucei BS221; Trypanosoma brucei
  IC50: 6.8 nM
T. b. brucei BS221; Trypanosoma brucei, BS221, mean and SEM, n = 2, read-out: EC50, parental line of AT1-KO
  EC50: 6.4 ± 0.4 nM
T. b. brucei BS221
  IC50: 6.1 nM and 5.4 nM and 7.3 nM
T. b. brucei Squib 427; 6.25 mg/kg bid PO, 4 dpi
  parasitaemia, individual mice: 0
T. b. brucei Squib 427; 6.25 mg/kg bid PO, 7 dpi
  parasitaemia, individual mice: 0
T. b. brucei Squib 427; 6.25 mg/kg bid PO, 10 dpi
  parasitaemia, individual mice: 0
T. b. brucei Squib 427; 6.25 mg/kg bid PO, 14 dpi
  parasitaemia, individual mice: 0
T. b. brucei Squib 427; 6.25 mg/kg bid PO, 21 dpi
  parasitaemia, individual mice: 0
T. b. brucei Squib 427; 12.5 mg/kg bid PO, 4 dpi
  parasitaemia, individual mice: 0
T. b. brucei Squib 427; 12.5 mg/kg bid PO, 7 dpi
  parasitaemia, individual mice: 0
T. b. brucei Squib 427; 12.5 mg/kg bid PO, 10 dpi
  parasitaemia, individual mice: 0
T. b. brucei Squib 427; 12.5 mg/kg bid PO, 14 dpi
  parasitaemia, individual mice: 0
T. b. brucei Squib 427; 12.5 mg/kg bid PO, 21 dpi
  parasitaemia, individual mice: 0
T. b. brucei Squib 427; 25 mg/kg bid PO, 4 dpi
  parasitaemia, individual mice: 0
T. b. brucei Squib 427; 25 mg/kg bid PO, 7 dpi
  parasitaemia, individual mice: 0
T. b. brucei Squib 427; 25 mg/kg bid PO, 10 dpi
  parasitaemia, individual mice: 0
T. b. brucei Squib 427; 25 mg/kg bid PO, 14 dpi
  parasitaemia, individual mice: 0
T. b. brucei Squib 427; 25 mg/kg bid PO, 21 dpi
  parasitaemia, individual mice: 0
T. b. brucei Squib 427; all treatment schedules, no adverse reactions, no weight loss
  tolerability in mice: well tolerated
T. b. brucei Squib 427; follow-up of parasitaemia
  test of cure: blood of surviving animals at 21 dpi inoculated in treatment-naïve mice: absence of parasitaemia
T. b. brucei Squib 427; i.p. 10 mg kg^−1 s.i.d. for 5 days
  blood parasitaemia and survival at 21 dpi: negative blood parasitaemia and survival of all treated mice
T. b. brucei Squib 427; oral 6.25 mg kg^−1 b.i.d. for 5 days
  blood parasitaemia and survival at 21 dpi: negative blood parasitaemia and survival of all treated mice
T. b. brucei Squib 427; oral 12.5 mg kg^−1 b.i.d. for 5 days
  blood parasitaemia and survival at 21 dpi: negative blood parasitaemia and survival of all treated mice
T. b. brucei Squib 427; oral 25 mg kg^−1 b.i.d. for 5 days
  blood parasitaemia and survival at 21 dpi: negative blood parasitaemia and survival of all treated mice
[2]; microsomes, 0 min, 5 µM
  % analogue 9 remaining, EXP 1 / EXP 2: 100%
  % analogue 9 remaining, Mean: 100%
[2]; s9, 0.5 h
  metabolic stability: metabolically stable
[3]; microsomes, 0 min, 5 µM
  % analogue 9 remaining, EXP 1 / EXP 2: 100%
  % analogue 9 remaining, Mean: 100%
[3]; s9, 0.5 h
  metabolic stability: metabolically stable
[1]
  effect of adenosine deaminase inhibition (2’-deoxycoformycin) on EC50: not significantly affected
[1]; [4]
  EC50: 37 ± 3 nM
[1]; [5]
  EC50: 49 ± 9 nM
T. brucei NY-SM cells; 1.4 nM
  RNA Yield: RNA Content: 1.35 and 1.46
  RNA Yield: 18S rRNA: 0.9222 and 0.9324 and 0.9996 and 1.001
  RNA Yield: SL-RNA: 0.789 and 0.7785 and 0.978 and 0.9385
  RNA Yield: TERT: 0.9232 and 0.9182 and 1.015 and 1.009
T. brucei NY-SM cells; 3.5 nM
  RNA Yield: RNA Content: 0.81 and 1.07
  RNA Yield: 18S rRNA: 0.9119 and 1.014 and 1.009 and 1.044
  RNA Yield: SL-RNA: 0.7939 and 0.7953 and 1.021 and 1.016
  RNA Yield: TERT: 0.9429 and 0.9282 and 1.046 and 1.035
T. brucei NY-SM cells; 7 nM
  RNA Yield: RNA Content: 0.50 and 0.86
  RNA Yield: 18S rRNA: 1.036 and 1.037
  RNA Yield: SL-RNA: 1.052 and 1.049
  RNA Yield: TERT: 1.046 and 1.042
T. brucei NY-SM cells; 24 h, various concentrations
  impact on RNA synthesis: absence of a major impact on the total RNA pool and the levels of specific transcripts
